Read-outs that look alike come from different tables or passages of the source.
System: influenza virus (strain A/Puerto Rico/8/34/H1N1 depicted PR8)
Conditions: n=2

SMILES | relative infection (0.1 µM) | relative infection (0.3 µM) | relative infection (0.9 µM) | relative infection (2.8 µM) | relative infection (8.3 µM) | relative infection (25.0 µM)
O=C(Nc1ccc([N+](=O)[O-])cc1Cl)c1cc(Cl)ccc1OCCOc1ccccc1 [TVB-1329] | 0.99 | 0.98 | 1.04 | 0.99 | 0.69 | 0.04
O=C(Nc1ccc([N+](=O)[O-])cc1Cl)c1cc(Cl)cc(Cl)c1O [TVB-1326] | 1.02 | 0.94 | 0.90 | 0.78 | 0.68 | 0.01
CS(=O)(=O)c1ccc(NC(=O)c2cc(Cl)ccc2O)c(Cl)c1 [TVB-1338] | 0.81 | 0.81 | 0.78 | 0.82 | 0.78 | 
O=C(Nc1ccc([N+](=O)[O-])cc1Cl)c1ccccc1O [TVB-1332] | 1.04 | 1.06 | 1.04 |  | 0.02 | 0.00

From publication PMC3486884 (PLoS Pathogens, 2012)
